Patent US9120749B2, “Quinoline derivatives and MELK inhibitors containing the same” (ONCOTHERAPY SCIENCE, INC., priority 2010, dated 2015)
Counter-ions that a name gives are not always drawn. Like-named read-outs stand apart in the source and are kept apart here.

Tests used:
[1] = system: T47D cells; experiment: Cell-based assay: anti-proliferative activity, Cell Counting Kit-8, 72 hours (T47D)
Summary of the method: (§1)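 Anti-MELK western blot on crude lysates → MELK status per line. Cells plated 96-well, compound exposure, CCK-8 readout at 72 h; IC50 calculated.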

[2] = system: A549 cells; experiment: Cell-based assay: anti-proliferative activity, Cell Counting Kit-8, 72 hours (A549); settings: 72 hours
Summary of the method: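 A549 cells were seeded in 96-well plates and exposed to candidate inhibitors for 72 hours. Cell growth was then measured with Cell Counting Kit-8, and IC50 values were calculated from the resulting growth data.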

[3] = system: HT-1197 cells; experiment: Cell-based assay: anti-proliferative activity, Cell Counting Kit-8, 72 hours (HT-1197, negative control without MELK expression); settings: HT1197 cells (negative control, no MELK expression), 72 hours
Summary of the method: as §1

[4] = molecular target: MELK (Homo sapiens, UniProt Q14680); experiment: Kinase assay: MELK activity, phosphorylation of FITC-labeled histone H3 peptide measured by IMAP fluorescence polarization; assay type: biochemical; settings: read-out: IC50 (μM) (kinase assay)
MELK, sequence (Q14680 whole entry, looked up): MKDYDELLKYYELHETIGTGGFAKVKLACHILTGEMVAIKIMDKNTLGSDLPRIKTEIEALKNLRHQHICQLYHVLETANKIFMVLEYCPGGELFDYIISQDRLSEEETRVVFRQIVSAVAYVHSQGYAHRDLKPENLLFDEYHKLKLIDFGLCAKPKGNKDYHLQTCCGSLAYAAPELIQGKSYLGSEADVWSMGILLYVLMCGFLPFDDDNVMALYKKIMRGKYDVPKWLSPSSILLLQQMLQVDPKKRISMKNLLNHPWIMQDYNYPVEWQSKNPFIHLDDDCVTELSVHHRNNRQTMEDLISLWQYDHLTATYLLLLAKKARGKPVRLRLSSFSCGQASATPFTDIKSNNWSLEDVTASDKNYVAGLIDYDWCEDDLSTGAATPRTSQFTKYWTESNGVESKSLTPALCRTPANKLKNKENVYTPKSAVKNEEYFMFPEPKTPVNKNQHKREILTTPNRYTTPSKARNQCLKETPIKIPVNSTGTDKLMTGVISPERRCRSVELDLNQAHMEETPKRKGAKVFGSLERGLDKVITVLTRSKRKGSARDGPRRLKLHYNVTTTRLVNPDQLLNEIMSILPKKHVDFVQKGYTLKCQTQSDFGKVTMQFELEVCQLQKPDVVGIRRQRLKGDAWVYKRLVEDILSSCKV
Summary of the method: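 Compounds, serially diluted from 12.5 mM DMSO stocks to 1% final DMSO, were tested with FITC-labeled histone H3 peptide as substrate. The reaction was stopped with progressive binding solution. Fluorescence polarization was read after 0.5 hour at room temperature.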

[5] = system: DU4475 cells; experiment: Cell-based assay: anti-proliferative activity, Cell Counting Kit-8, 72 hours (DU4475)
[6] = system: 22Rv1 cells; experiment: Cell-based assay: anti-proliferative activity, Cell Counting Kit-8, 72 hours (22Rv1)

Compound	IC50 ([1]; Homo sapiens, T47D, 72 h) [µM]	IC50 ([2]; Homo sapiens, A549, 72 h) [µM]	IC50 ([3]; Homo sapiens, HT1197, 72 h) [µM]	IC50 [4] [µM]	IC50 ([5]; Homo sapiens, DU-4475, 72 h) [µM]	IC50 ([6]; Homo sapiens, 22Rv1, 72 h) [µM]	other results
CC(=O)c1cnc2ccc(-c3cc(Cl)c(O)c(Cl)c3)cc2c1N[C@@H]1CCC[C@@H](CN(C)C)C1 [Example 750, 1-(6-(3,5-dichloro-4-hydroxyphenyl)-4-((1R,3R)-3-((dimethylamino)methyl)cyclohexylamino)quinolin-3-yl)ethanone]	0.2	0.39	1.7	0.0023	0.19		
CC(=O)c1cnc2ccc(-c3cc(F)c(O)c(Cl)c3)cc2c1N[C@@H]1CCC[C@@H](CN(C)C)C1 [Example 751, 1-(6-(3-chloro-5-fluoro-4-hydroxyphenyl)-4-((1R,3R)-3-((dimethylamino)methyl)cyclohexylamino)quinolin-3-yl)ethanone]	0.32	0.58	1.7	0.0067	0.29		
COc1cc(-c2ccc3ncc(C(C)=O)c(N[C@@H]4CCC[C@@H](CN(C)C)C4)c3c2)cc(Cl)c1O [Example 752, 1-(6-(3-chloro-4-hydroxy-5-methoxyphenyl)-4-((1R,3R)-3-((dimethylamino)methyl)cyclohexylamino)quinolin-3-yl)ethanone]	0.18	0.2	3.4	0.001	0.17		
CC(=O)c1cnc2ccc(-c3cc(Cl)c(O)c(Cl)c3)cc2c1N[C@H]1CC[C@H](CN2CCC(O)C2)CC1 (stereo partly shown) [Example 753]	0.13	0.37	71	0.0015	0.057		
CCC(=O)c1cnc2ccc(-c3cc(Cl)c(O)c(Cl)c3)cc2c1N[C@H]1CC[C@H](N(C)C)CC1 [Example 754, 1-(6-(3,5-dichloro-4-hydroxyphenyl)-4-((trans-4-(dimethylamino)cyclohexyl)amino)quinolin-3-yl)propan-1-one]	0.19	0.22	10	0.02	0.072		
CCC(=O)c1cnc2ccc(-c3cc(Cl)c(O)c(OC)c3)cc2c1N[C@H]1CC[C@H](N(C)C)CC1 [Example 755]	0.35	0.34	3.4	0.0018	0.21		
CCC(=O)c1cnc2ccc(-c3cc(F)c(O)c(Cl)c3)cc2c1N[C@H]1CC[C@H](N(C)C)CC1 [Example 757, 1-(6-(3-chloro-5-fluoro-4-hydroxyphenyl)-4-((trans-4-(dimethylamino)cyclohexyl)amino)quinolin-3-yl)propan-1-one]	0.064	0.15	0.76	0.0062	0.069		
CC(=O)c1cnc2ccc(-c3cc(Cl)c(O)c(Cl)c3)cc2c1Nc1ccc(NCCN(C)C)nc1 [Example 758, 1-(6-(3,5-dichloro-4-hydroxyphenyl)-4-(6-(2-(dimethylamino)ethylamino)pyridin-3-ylamino)quinolin-3-yl)ethanone]	0.15	0.22	24	0.0053	0.055		
CC(=O)c1cnc2ccc(-c3cc(F)c(O)c(Cl)c3)cc2c1Nc1cccc(CCN(C)C)c1 [Example 759, 1-(6-(3-chloro-5-fluoro-4-hydroxyphenyl)-4-(3-(2-(dimethylamino)ethyl)phenylamino)quinolin-3-yl)ethanone]	0.67	0.42	10	0.013	0.2		
CCC(=O)c1cnc2ccc(-c3cc(F)c(O)c(Cl)c3)cc2c1Nc1ccc(N2CCC(N)C2)nc1 (stereo not shown) [Example 760, 1-(4-(6-(3-aminopyrrolidin-1-yl)pyridin-3-ylamino)-6-(3-chloro-5-fluoro-4-hydroxyphenyl)quinolin-3-yl)propan-1-one]	0.0087	0.031	0.77	0.0034	0.016		
CCC(=O)c1cnc2ccc(-c3cc(Cl)c(O)c(Cl)c3)cc2c1Nc1ccc(N2CCC(N)C2)nc1 (stereo not shown) [Example 761, 1-(4-(6-(3-aminopyrrolidin-1-yl)pyridin-3-ylamino)-6-(3,5-dichloro-4-hydroxyphenyl)quinolin-3-yl)propan-1-one]	0.031	0.053	1.5	0.0026	0.022		
CC(=O)c1cnc2ccc(-c3cc(F)c(O)c(Cl)c3)cc2c1Nc1ccc(NCCN(C)C)nc1 [Example 762, 1-(6-(3-chloro-5-fluoro-4-hydroxyphenyl)-4-(6-(2-(dimethylamino)ethylamino)pyridin-3-ylamino)quinolin-3-yl)ethanone]	0.12	0.25	5.2	0.014	0.089		
CN(C)CCNc1ccc(Nc2c(C(=O)C3CC3)cnc3ccc(-c4cc(F)c(O)c(Cl)c4)cc23)cn1 [Example 776, (6-(3-chloro-5-fluoro-4-hydroxyphenyl)-4-(6-(2-(dimethylamino)ethylamino)pyridin-3-ylamino)quinolin-3-yl)(cyclopropyl)methanone]	0.073	0.08	1.2		0.038	0.15	
CN(C)CCNc1ccc(Nc2c(C(=O)C3CC3)cnc3ccc(-c4cc(F)c(O)c(Cl)c4)cc23)cn1 [Example 777, (6-(3-chloro-5-fluoro-4-hydroxyphenyl)-4-(6-(2-(dimethylamino)ethylamino)pyridin-3-ylamino)quinolin-3-yl)(cyclopropyl)methanone trihydrochloride]							IC50 ([1]; 72 hours, trihydrochloride): 0.12 µM; IC50 ([2]; trihydrochloride): 0.12 µM; IC50 ([3]; trihydrochloride): 1.6 µM; IC50 ([6]; trihydrochloride): 0.17 µM; IC50 ([5]; trihydrochloride): 0.047 µM
CC(=O)c1cnc2ccc(-c3cc(Cl)c(O)c(Cl)c3)cc2c1N[C@H]1CC[C@H](CN2CCC[C@H]2CO)CC1 [Example 792, 1-(6-(3,5-dichloro-4-hydroxyphenyl)-4-((1S,4r)-4-(((S)-2-(hydroxymethyl)pyrrolidin-1-yl)methyl)cyclohexylamino)quinolin-3-yl)ethanone]	0.079	0.1		0.0011	0.073	0.12	
O=C(c1cnc2ccc(-c3cc(Cl)c(O)c(Cl)c3)cc2c1Nc1cccc(CCN2CCCC2)c1)C1CC1 [Example 797, Cyclopropyl{6-(3,5-dichloro-4-hydroxyphenyl)-4-[3-(2-(pyrrolidin-1-yl)ethyl)phenylamino]quinolin-3-yl}methanone]	0.31	0.022		0.0056	0.03	0.12	
O=C(c1cnc2ccc(-c3cc(Cl)c(O)c(Cl)c3)cc2c1Nc1cccc(CCN2CCCC2)c1)C1CC1 [Example 798, cyclopropyl(6-(3,5-dichloro-4-hydroxyphenyl)-4-(3-(2-(pyrrolidin-1-yl)ethyl)phenylamino)quinolin-3-yl)methanone hydrochloride]							IC50 ([1]; 72 hours, hydrochloride): 0.16 µM; IC50 ([2]; hydrochloride): 0.019 µM; IC50 ([4]; hydrochloride): 0.0029 µM; IC50 ([6]; hydrochloride): 0.092 µM; IC50 ([5]; hydrochloride): 0.02 µM
O=C(c1cnc2ccc(-c3cc(F)c(O)c(Cl)c3)cc2c1Nc1cccc(CCN2CCCC2)c1)C1CC1 [Example 800, (6-(3-chloro-5-fluoro-4-hydroxyphenyl)-4-(3-(2-(pyrrolidin-1-yl)ethyl)phenylamino)quinolin-3-yl)(cyclopropyl)methanone hydrochloride]							IC50 ([1]; 72 hours, hydrochloride): 0.26 µM; IC50 ([2]; hydrochloride): 0.041 µM; IC50 ([4]; hydrochloride): 0.012 µM; IC50 ([6]; hydrochloride): 0.17 µM; IC50 ([5]; hydrochloride): 0.046 µM
CC(=O)c1cnc2ccc(-c3cc(Cl)c(O)c(Cl)c3)cc2c1Nc1cccc(CCN2CCCC2)c1 [Example 801, 1-{6-(3,5-Dichloro-4-hydroxyphenyl)-4-[3-(2-(pyrrolidin-1-yl)ethyl)phenylamino]quinolin-3-yl}ethanone]	0.37	0.081		0.004	0.06	0.15	
CC(=O)c1cnc2ccc(-c3cc(Cl)c(O)c(Cl)c3)cc2c1Nc1cccc(CCN2CCCC2)c1 [Example 802, 1-(6-(3,5-dichloro-4-hydroxyphenyl)-4-(3-(2-(pyrrolidin-1-yl)ethyl)phenylamino)quinolin-3-yl)ethanone hydrochloride]							IC50 ([1]; 72 hours, hydrochloride): 0.45 µM; IC50 ([2]; hydrochloride): 0.08 µM; IC50 ([4]; hydrochloride): 0.0021 µM; IC50 ([6]; hydrochloride): 0.16 µM; IC50 ([5]; hydrochloride): 0.072 µM
CC(=O)c1cnc2ccc(-c3cc(F)c(O)c(Cl)c3)cc2c1Nc1cccc(CCN2CCCC2)c1 [Example 803, 1-(6-(3-chloro-5-fluoro-4-hydroxyphenyl)-4-(3-(2-(pyrrolidin-1-yl)ethyl)phenylamino)quinolin-3-yl)ethanone]	0.65	0.17		0.016	0.12	0.44	
CC(=O)c1cnc2ccc(-c3cc(Cl)c(O)c(Cl)c3)cc2c1N[C@H]1CC[C@H](CN2CCC[C@@H]2CO)CC1 [Example 812]	0.15	0.18		0.0017	0.086	0.2	
CC(=O)c1cnc2ccc(-c3cc(Cl)c(O)c(Cl)c3)cc2c1Nc1cnn(C2CCN(C)CC2)c1 [Example 836, 1-(6-(3,5-dichloro-4-hydroxyphenyl)-4-((1-(1-methylpiperidin-4-yl)-1H-pyrazol-4-yl)amino)quinolin-3-yl)ethanone dihydrochloride]	0.35	0.45			0.082	0.27	IC50 ([4]; MELK kinase assay, IMAP fluorescence polarization, 50 micro-M ATP): 0.0014 µM
